Entries after “also recorded” stand apart in the source; their conditions may differ. Read-outs that look alike come from different tables or passages of the source.
Assays:
[1] = tested on: G-DIF gastric cancer cell lines; experiment: In vitro cell proliferation assay (MTS), G-DIF cell lines; type: cell-based, human; conditions: mean of 17 G-DIF cell lines, drug concentration at which 50% growth inhibition is achieved, read-out: Mean GI-50 concentration
Method: (§1) Cell proliferation assays were performed using a tetrazolium compound-based colorimetric method. Adherent or semi-adherent cell lines with doubling times less than 48 hours were used in this analysis. The cell lines for which cell proliferation assays were performed are: YCC19, YCC18, TMK1, YCC2, CLS145, YCC9, YCC6, NUGC3, HGC-27, Fu97, Ist1, YCC7, YCC16, Hs746T, MKN45, KatoIII, AGS, SNU719, AZ521, YCC1, MKN1, YCC11, IM95, MKN7, YCC3, YCC10, SCH and N87. Cell proliferation assays were performed using a tetrazolium compound-based colorimetric method (MTS kit, Promega, Madison, Wis., USA) according to the manufacturer's instructions and measured using an EnVision 2104 multilabel plate reader (Perkin Elmer, Finland) at 490 nm. Inhibition of cell growth by drugs was also visually confirmed under microscopy. Drugs used include cisplatin (Sigma, 479306-1G), oxaliplatin (Sigma, O9512), 5-Fluorouracil (Sigma, F6627-1G).
(§2) Of the 37 cell lines, 28 cell lines (11 G-INT and 17 G-DIF) had growth characteristics suitable for in vitro drug sensitivity testing. 5-FU, oxaliplatin and cisplatin are drugs presently employed in the adjuvant and 1st line palliative treatment of GC. The 28 cell lines were treated with increasing concentrations of these drugs.

GC subsets = conditions: INT-0116, ten-year update subgroup analysis; cited from earlier work
[2] = tested on: G-INT gastric cancer cell lines; experiment: In vitro cell proliferation assay (MTS), G-INT cell lines; type: cell-based, human; conditions: for In vitro sensitivity of G-INT versus G-DIF cell lines: 28 cell lines (11 G-INT and 17 G-DIF) treated with increasing concentrations; for GI50: mean of 11 G-INT cell lines, drug concentration at which 50% growth inhibition is achieved, read-out: Mean GI-50 concentration
Method: as §1, §2

SMILES: O=c1[nH]cc(F)c(=O)[nH]1 [5-FU, 5-Fluorouracil]
- GI50 ([1]; Homo sapiens): 23.2 µM
- Benefit from 5-FU therapy by GC subset (GC subsets): all GC subsets benefited from 5-FU therapy except for cases with diffuse histology
- In vitro sensitivity of G-INT versus G-DIF cell lines [2]: G-INT cell lines were significantly more sensitive
- GI50 ([2]; Homo sapiens): 5.2 µM

SMILES: N.N.[Cl][Pt][Cl] [cisplatin]
- GI50 [1]: 13.3 µM
- In vitro sensitivity of G-INT versus G-DIF cell lines [2]: G-DIF cell lines were more sensitive; also recorded: more resistant
- GI50 [2]: 38.6 µM

SMILES: O=C1[O][Pt]2([NH][C@@H]3CCCC[C@H]3[NH]2)[O]C1=O [oxaliplatin]
- GI50 [1]: 5.49 µM
- In vitro sensitivity of G-INT versus G-DIF cell lines [2]: G-INT cell lines were significantly more sensitive
- GI50 [2]: 1.33 µM

— patent US20130064901A1, “GENE EXPRESSION PROFILING FOR CLASSIFYING AND TREATING GASTRIC CANCER” (Agency for Science, Technology and Research, priority 2011, published 2013)
